Results reported in patent US20240174624A1, “CHIRAL N-(1,3,4-OXADIAZOLE-2-YL)PHENYL CARBOXYLIC ACID AMIDES AND THEIR USE AS HERBICIDES” (Bayer Aktiengesellschaft, priority 2021, published 2024).

What was measured:
ZEAMX [1] = test: Pre-emergence damage to crop plants; format: in vivo, Zea mays; settings: 320 g a.i./ha, comparative experiment
Description: (§1) Seeds of monocotyledonous and dicotyledonous weed plants and crop plants are laid out in sandy loam soil in wood-fibre pots and covered with soil. The compounds of the invention, formulated in the form of wettable powders (WP) or as emulsion concentrates (EC), are then applied to the surface of the covering soil in the form of an aqueous suspension or emulsion at a water application rate equivalent to 600 to 800 l/ha, with addition of 0.2% wetting agent. After the treatment, the pots are placed in a greenhouse and kept under good growth conditions for the trial plants. The damage to the test plants is scored visually after a test period of 3 weeks by comparison with untreated controls (herbicidal activity in percent (%): 100% activity=the plants have died, 0% activity=like control plants). […] The tables below illustrate, in an illustrative manner, the post-emergence herbicidal action of the compounds of the invention, the herbicidal activity being stated in percent. In the experiments that follow, the herbicidal action of the compounds of the invention and that of the corresponding known racemic compounds closest from WO2012126932 and WO2018202535 were compared under the above-specified conditions by the pre-emergence and post-emergence method. The example numbers given in the tables relate to the compounds disclosed in the respective documents.

VERPE [2] = test: Post-emergence herbicidal action; format: in vivo, Veronica persica; settings: 5 g a.i./ha, comparative experiment
Procedure: (§2) Seeds of monocotyledonous and dicotyledonous weed and crop plants are laid out in sandy loam soil in wood-fibre pots, covered with soil and cultivated in a greenhouse under good growth conditions. 2 to 3 weeks after sowing, the test plants are treated at the one-leaf stage. The compounds of the invention, formulated in the form of wettable powders (WP) or as emulsion concentrates (EC), are then sprayed onto the green parts of the plants in the form of an aqueous suspension or emulsion at a water application rate equating to 600 to 800 l/ha, with addition of 0.2% wetting agent. After the test plants have been left to stand in the greenhouse under optimal growth conditions for about 3 weeks, the action of the preparations is assessed visually in comparison to untreated controls (herbicidal action in percent (%): 100% activity=the plants have died, 0% activity=like control plants). […] The tables below illustrate, in an illustrative manner, the post-emergence herbicidal action of the compounds of the invention, the herbicidal activity being stated in percent. In the experiments that follow, the herbicidal action of the compounds of the invention and that of the corresponding known racemic compounds closest from WO2012126932 and WO2018202535 were compared under the above-specified conditions by the pre-emergence and post-emergence method. The example numbers given in the tables relate to the compounds disclosed in the respective documents.

AVEFA = test: Pre-emergence herbicidal action; format: in vivo, Avena fatua; settings: 20 g a.i./ha, comparative experiment
Description: as §1

POLCO = test: Pre-emergence herbicidal action; format: in vivo, Polygonum convolvulus; settings: 320 g a.i./ha, comparative experiment
Description: as §1

CYPES [3] = test: Pre-emergence herbicidal action; format: in vivo, Cyperus esculentus; settings: 20 g a.i./ha, comparative experiment
Description: as §1

VERPE [4] = test: Pre-emergence herbicidal action; format: in vivo, Veronica persica; settings: comparative experiment
Description: as §1

SETVI [5] = test: Post-emergence herbicidal action; format: in vivo, Setaria viridis; settings: 5 g a.i./ha, comparative experiment
Procedure: as §2

MATIN = test: Pre-emergence herbicidal action; format: in vivo, Matricaria inodora; settings: 20 g a.i./ha, comparative experiment
Description: as §1

ZEAMX [6] = test: Post-emergence damage to crop plants; format: in vivo, Zea mays; settings: 20 g a.i./ha, comparative experiment
Procedure: as §2

STEME [7] = test: Pre-emergence herbicidal action; format: in vivo, Stellaria media; settings: comparative experiment
Description: as §1

CYPES [8] = test: Post-emergence herbicidal action; format: in vivo, Cyperus esculentus; settings: 20 g a.i./ha, comparative experiment
Procedure: as §2, with “The example numbers given in the tables relate to the compounds disclosed in the respective documents.” left out

STEME [9] = test: Post-emergence herbicidal action; format: in vivo, Stellaria media; settings: 5 g a.i./ha, comparative experiment
Procedure: as §2

ALOMY = test: Pre-emergence herbicidal action; format: in vivo, Alopecurus myosuroides; settings: 20 g a.i./ha, comparative experiment
Description: as §1

SETVI [10] = test: Pre-emergence herbicidal action; format: in vivo, Setaria viridis; settings: 20 g a.i./ha, comparative experiment
Description: as §1

With `Cc1nnc(NC(=O)c2ccc(C(F)(F)F)c([S+](C)[O-])c2Cl)o1` (racemic) [2-360, from WO2012126932, 2-chloro-N-(5-methyl-1,3,4-oxadiazol-2-yl)-3-[(rac)-methylsulfinyl]-4-(trifluoromethyl)benzamide, reference compound] the “Herbicidal action against ZEAMX” value (ZEAMX [1]) was 60%, the “Herbicidal action against VERPE” value (VERPE [2]) was 20% and the “Herbicidal action against AVEFA” value (AVEFA) was 0%. The “Herbicidal action against POLCO” value (POLCO) was 20%, the “Herbicidal action against CYPES” value (CYPES [3]) was 70% and the “Herbicidal action against VERPE” value (VERPE [4]; 20 g a.i./ha) was 0%. The “Herbicidal action against VERPE” value (VERPE [4]; 80 g a.i./ha) was 10%, the “Herbicidal action against SETVI” value (SETVI [5]) was 80% and the “Herbicidal action against MATIN” value (MATIN) was 70%. For the same molecule, the “Damage to ZEAMX” value (ZEAMX [6]) was 20%, the “Herbicidal action against STEME” value (STEME [7]; 20 g a.i./ha) was 0% and the “Herbicidal action against STEME” value (STEME [7]; 80 g a.i./ha) was 70%. The “Herbicidal action against STEME” value (STEME [7]; 320 g a.i./ha) was 70%, the “Herbicidal action against CYPES” value (CYPES [8]) was 50% and the “Herbicidal action against STEME” value (STEME [9]) was 0%. The “Herbicidal action against ALOMY” value (ALOMY) was 30% and the “Herbicidal action against SETVI” value (SETVI [10]) was 50%.
